According to US8753838B2, “Method for producing alcohol using bioethanol waste fermented solution” (Korea Institute of Science and Technology, priority 2010, dated 2014):
“Also recorded” adds a separate entry of the source.

Legend:
[1] = tested on: Clostridium pasteurianum (C. pasteurianum DSM 525); assay: Alkaline agent for pH control of medium: growth and butanol production of Clostridium pasteurianum (Example 4); type: cell-based; details: for cell growth (order of alkaline agents): medium of Example 1 with 10 g/L lactic acid, pH adjusted to 6.5 using each alkaline agent
Excerpt: In the experiment for evaluating the effect of lactic acid, acetic acid and ethanol on the growth of Clostridium pasteurianum (C. pasteurianum DSM 525), sodium hydroxide (NaOH) was used to adjust the pH of the medium. Since the ethanol waste fermented solution has a pH of 4-5, the pH needs to be controlled using an alkaline agent in order to produce butanol using the Clostridium pasteurianum (C. pasteurianum DSM 525). In addition to sodium hydroxide, potassium hydroxide (KOH), calcium hydroxide (Ca(OH)2), ammonia water (NH4OH), etc. are available as the alkaline agent. It was investigated whether the growth of Clostridium pasteurianum (C. pasteurianum DSM 525) is affected by the alkaline agents. For this purpose, after adding lactic acid (10 g/L) to the medium of Example 1, pH was adjusted to 6.5 using each alkaline agent.

[2] = tested on: Clostridium pasteurianum (DSM 525); assay: Effect of lactic acid, acetic acid and ethanol on growth and butanol production of Clostridium pasteurianum in glycerol medium (Example 1); type: cell-based; details: for inhibition of the growth of Clostridium pasteurianum (OD600): added to the medium up to 10 g/L, pH 6.5, 37° C.
Experimental: The butanol-producing bacterium Clostridium pasteurianum (DSM 525) was acquired from the DSMZ (Germany). The medium used for experiment was prepared with primarily distilled water (1 L) by adding the following ingredients: glycerol (30 g), K2HPO4 (0.5 g), KH2PO4 (0.5 g), MnSO4.H2O (0.01 g), MgSO4.7H2O (0.2 g), FeSO4.7H2O (0.01 g), NaCl (0.01 g), yeast extract (1 g), (NH4)2SO4 (2 g), MES (19.52 g), biotin (0.00001 g), thiamine (0.001 g) and p-aminobenzoic acid (0.001 g).
After adding lactic acid (C3H6O3, 0-14.6 g/L), acetic acid (C2H4O2, 0-10 g/L) or ethanol (C2H60, 0-20 g/L) to the medium, the pH was adjusted to 6.5 using potassium hydroxide (KOH) or sodium hydroxide (NaOH). After placing the medium (50 mL) in a 125-mL serum bottle and removing oxygen by blowing in argon gas, the bottle was sealed with a butyl rubber stopper and an aluminum cap. After sterilizing under high pressure and inoculating Clostridium pasteurianum cultured for 1-2 days at 5% (v/v), the bacterium was cultured at 37° C. while shaking at 130 rpm.
The cell growth was determined by measuring absorbance (optical density) at 600 nm (OD600).

Structure (SMILES) | cell growth (order of alkaline agents) [1] | inhibition of the growth of Clostridium pasteurianum (OD600) [2] | also measured
[Ca+2].[OH-].[OH-] [calcium hydroxide, calcium hydroxide (Ca(OH)2)] | faster in the order of calcium hydroxide, potassium hydroxide, ammonia water and sodium hydroxide |  | 
CCO [ethanol] |  | did not result in severe inhibition | 
CC(O)C(=O)O (stereo not drawn) [Lactic acid, lactic acid] |  | did not result in severe inhibition | production of butanol ([2]; lactic acid added (10 g/L or less) compared to when not added): improved butanol-producing effect; also recorded: improved production of butanol
[K+].[OH-] [potassium hydroxide, potassium hydroxide (KOH)] | faster in the order of calcium hydroxide, potassium hydroxide, ammonia water and sodium hydroxide |  | 
CC(=O)O [acetic acid] |  | did not result in severe inhibition | 
N [ammonia water, ammonia water (NH4OH)] | faster in the order of calcium hydroxide, potassium hydroxide, ammonia water and sodium hydroxide |  | 
[Na+].[OH-] [sodium hydroxide, sodium hydroxide (NaOH)] | faster in the order of calcium hydroxide, potassium hydroxide, ammonia water and sodium hydroxide |  | 
[Na] [sodium] |  |  | growth of the microorganism ([1]; as compared to potassium): inhibits the growth
